Source: patent US20250387388A1, “COMPOUND AS TRK INHIBITOR AND/OR RET INHIBITOR AND USE THEREOF” (Medinno Pharmaceutical Technology (Zhuhai) Co., Ltd., priority 2022, published 2025)
Where two headings read alike, the source gives them in different places. One block for each compound: values may come before it.

Key:
[1] = tested on: atopic dermatitis/eczema in mice; assay: Atopic dermatitis/eczema model in mice (dust mite extract + SEB); type: in vivo; conditions: for Number of Scratch Incidents (±SE) / Scratch Duration (±SE) / Skin Erythema, Hemorrhage, Eruption, and Desquamation (Lesion Scoring) (Mean ± SE): Tofacitinib 10 mg/kg
adipocytes = assay: Lipolysis in vitro in adipocytes; type: cell-based, C57BL/6 mouse
Description: Newly extracted neonatal C57BL/6 mouse skin fibroblasts (specific operational steps can be found in the literature: Cell Reports (2023)/doi: 10.1016/j.celrep.2023.112647) were plated and cultured in petri dishes until the cell density reached the highest and contact inhibition. Differentiation medium (DMEM+10% FBS+1× antibiotic; specific formula can be found in the literature: Cell Reports (2023)/doi: 10.1016/j.celrep.2023.112647) was then added to induce the generation of new adipocytes. […] The control group received an equal volume of DMSO. The transformation of adipocytes was observed using a Leica inverted phase contrast microscope.

JAK3 = JAK3 (Homo sapiens (Human), UniProt P52333); conditions: reported; cited from earlier work
Sequence of JAK3 (P52333 whole entry, species assumed): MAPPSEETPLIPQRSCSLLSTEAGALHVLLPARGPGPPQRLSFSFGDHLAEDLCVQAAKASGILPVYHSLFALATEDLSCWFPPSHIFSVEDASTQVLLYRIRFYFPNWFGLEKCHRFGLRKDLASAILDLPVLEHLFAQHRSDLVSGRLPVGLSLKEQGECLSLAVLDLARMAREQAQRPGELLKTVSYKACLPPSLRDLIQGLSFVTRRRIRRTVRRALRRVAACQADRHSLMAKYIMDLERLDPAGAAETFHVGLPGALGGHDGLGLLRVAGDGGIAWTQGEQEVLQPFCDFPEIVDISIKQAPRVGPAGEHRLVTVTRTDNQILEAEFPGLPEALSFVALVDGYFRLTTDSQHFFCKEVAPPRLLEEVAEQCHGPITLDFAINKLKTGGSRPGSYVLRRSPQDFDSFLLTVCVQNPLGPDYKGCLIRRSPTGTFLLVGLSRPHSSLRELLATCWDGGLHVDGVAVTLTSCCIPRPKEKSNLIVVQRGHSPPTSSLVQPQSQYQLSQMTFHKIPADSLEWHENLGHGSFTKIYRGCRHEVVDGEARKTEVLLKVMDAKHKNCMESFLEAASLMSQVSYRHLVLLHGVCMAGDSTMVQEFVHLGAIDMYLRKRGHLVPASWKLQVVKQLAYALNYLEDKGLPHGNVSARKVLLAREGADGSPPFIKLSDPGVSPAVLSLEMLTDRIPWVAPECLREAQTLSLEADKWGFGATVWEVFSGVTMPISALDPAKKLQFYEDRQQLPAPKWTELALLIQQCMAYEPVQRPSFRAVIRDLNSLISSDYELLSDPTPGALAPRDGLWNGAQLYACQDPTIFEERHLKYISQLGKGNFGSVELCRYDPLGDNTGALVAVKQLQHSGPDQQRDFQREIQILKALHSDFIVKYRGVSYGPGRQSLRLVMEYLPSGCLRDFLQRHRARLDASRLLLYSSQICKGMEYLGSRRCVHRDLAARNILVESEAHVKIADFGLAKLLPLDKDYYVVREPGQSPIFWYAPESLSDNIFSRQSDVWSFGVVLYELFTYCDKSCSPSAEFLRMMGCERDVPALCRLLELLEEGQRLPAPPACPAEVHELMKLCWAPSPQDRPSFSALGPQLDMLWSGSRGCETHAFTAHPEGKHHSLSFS

TRKA [2] = target: T1, TRKA (Homo sapiens (Human), UniProt P04629); conditions: reported; cited from earlier work
T1 sequence (P04629 33-796 limits assumed): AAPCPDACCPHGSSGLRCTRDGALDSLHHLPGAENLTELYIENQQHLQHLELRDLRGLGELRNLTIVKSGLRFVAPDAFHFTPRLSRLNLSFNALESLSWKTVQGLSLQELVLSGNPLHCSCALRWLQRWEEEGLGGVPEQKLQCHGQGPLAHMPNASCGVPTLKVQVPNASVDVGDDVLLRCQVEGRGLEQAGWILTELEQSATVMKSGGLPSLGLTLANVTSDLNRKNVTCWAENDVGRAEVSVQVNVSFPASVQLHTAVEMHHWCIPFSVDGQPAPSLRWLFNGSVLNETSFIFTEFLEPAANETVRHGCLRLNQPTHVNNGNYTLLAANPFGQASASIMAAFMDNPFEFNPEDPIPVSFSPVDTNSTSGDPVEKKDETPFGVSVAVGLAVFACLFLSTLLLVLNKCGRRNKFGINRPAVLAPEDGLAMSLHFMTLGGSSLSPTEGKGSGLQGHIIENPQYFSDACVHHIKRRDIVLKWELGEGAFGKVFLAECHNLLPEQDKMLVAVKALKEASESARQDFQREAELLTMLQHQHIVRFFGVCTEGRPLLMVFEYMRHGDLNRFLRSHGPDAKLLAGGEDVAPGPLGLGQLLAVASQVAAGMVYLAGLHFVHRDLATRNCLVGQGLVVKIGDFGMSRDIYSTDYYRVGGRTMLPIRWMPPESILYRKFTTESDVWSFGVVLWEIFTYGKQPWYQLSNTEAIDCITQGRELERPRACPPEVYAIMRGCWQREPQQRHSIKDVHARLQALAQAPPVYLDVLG

RET = RET (Homo sapiens (Human), UniProt P07949); assay: Inhibitory activity on RET kinase (HTRF KinEASE-TK); type: biochemical; conditions: ATP 16 μM
Sequence of RET (P07949 29-1114): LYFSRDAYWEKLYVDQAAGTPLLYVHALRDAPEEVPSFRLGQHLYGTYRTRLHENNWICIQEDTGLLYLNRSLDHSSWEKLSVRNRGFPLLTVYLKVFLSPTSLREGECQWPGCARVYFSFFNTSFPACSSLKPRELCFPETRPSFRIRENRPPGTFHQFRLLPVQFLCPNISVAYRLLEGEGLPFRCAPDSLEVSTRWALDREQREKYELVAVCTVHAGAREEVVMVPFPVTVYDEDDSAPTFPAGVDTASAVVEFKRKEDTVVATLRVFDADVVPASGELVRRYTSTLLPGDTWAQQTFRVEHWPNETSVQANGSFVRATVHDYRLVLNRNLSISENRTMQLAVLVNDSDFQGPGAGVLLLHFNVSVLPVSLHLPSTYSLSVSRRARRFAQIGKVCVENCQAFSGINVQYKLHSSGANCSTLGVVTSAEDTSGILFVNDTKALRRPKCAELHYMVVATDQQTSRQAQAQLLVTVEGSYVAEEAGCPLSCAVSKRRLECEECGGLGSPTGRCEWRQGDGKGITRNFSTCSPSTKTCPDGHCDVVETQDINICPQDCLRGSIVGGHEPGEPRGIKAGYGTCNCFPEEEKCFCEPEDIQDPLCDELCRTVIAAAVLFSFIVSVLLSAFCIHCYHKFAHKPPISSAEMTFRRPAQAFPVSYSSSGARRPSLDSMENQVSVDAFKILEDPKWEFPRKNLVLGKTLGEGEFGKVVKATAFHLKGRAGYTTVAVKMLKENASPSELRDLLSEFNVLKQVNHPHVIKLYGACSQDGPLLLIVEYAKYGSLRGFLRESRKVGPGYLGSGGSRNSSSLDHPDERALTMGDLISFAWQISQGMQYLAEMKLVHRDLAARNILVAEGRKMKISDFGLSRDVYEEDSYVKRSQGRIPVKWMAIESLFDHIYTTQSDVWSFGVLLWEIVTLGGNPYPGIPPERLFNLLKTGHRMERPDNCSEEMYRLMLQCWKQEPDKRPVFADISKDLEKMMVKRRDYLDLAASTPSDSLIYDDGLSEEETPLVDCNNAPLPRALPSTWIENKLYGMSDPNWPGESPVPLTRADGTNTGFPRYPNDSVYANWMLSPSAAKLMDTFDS
From the text: 3) Formulate 2.5× kinase with 1× kinase reaction buffer.

[3] = tested on: ovalbumin-induced asthma model in mice; assay: Ovalbumin-induced asthma model in mice; type: in vivo, Balb/c mice; conditions: nasal administration BID 5 days: MDI-1228 3 mg/kg, MDI-1288 3 mg/kg, MDI-1233 1, 3, 10 mg/kg
Description: After 7 days of acclimatization, animals were randomly grouped based on their body weight. The experiment was divided into 8 groups, with 8 mice in each group, as detailed in the table below.
• Preparation of Immunogen: Weigh an appropriate amount of OVA, to which an appropriate amount of PBS was added, to achieve a final concentration of 0.1 mg/ml. Then, an equal volume of aluminum adjuvant was added, and the resulting mixture was mixed well, and stored at 4° C., which was prepared before use. • Preparation of Sensitizer (5% OVA): Weigh an appropriate amount of OVA, to which an appropriate amount of PBS was added, to achieve a final concentration of 5%. The resulting mixture was mixed well, and store it at 4° C. for later use, which was prepared before use. • Preparation of Vehicle: Add 200 μl of Tween 80 to 100 ml of saline, and mix it well. […] Mix it well, and store it at 4° C. for later use. […] Mix it well, and store it at 4° C. for later use. […] Mix it well, and store it at 4° C. for later use. The solution was prepared once every three days.
• Immunization: On days 0, 7, 14, and 21, 200 μl of PBS was injected intraperitoneally for the first group, and 200 μl of (10 μg) OVA/aluminum adjuvant emulsion was injected intraperitoneally for groups 2-8. • Sensitization: From days 28 to 32, the first group of animals was exposed to nebulized PBS in a nebulization box for 20 minutes, and the groups 2-8 were exposed to nebulized 5% OVA in a nebulization box for 20 minutes. And then, they were removed. The sensitization was conducted at 12:30 PM daily. • Administration: The medicine was administrated twice a day at 9 AM and 5 PM via nasal drops. Dexamethasone (Dex) was administered by gavage once a day at 9 AM.
Serum IgE: Blood was collected from the orbits of animals after carbon dioxide euthanasia, and plasma was separated and stored at −40 degrees for plasma IgE detection.
Bronchoalveolar Lavage Fluid (BALF) Cell Count: An appropriate amount of foetal bovine serum was weighted and dissolved in PBS to a final concentration of 1%. After orbital blood collection, the trachea was exposed, and a 1 ml syringe needle was replaced with a mouse gavage needle. 0.8 ml of the lavage fluid was aspirated from the syringe and the lungs were lavaged three times. The lavage fluids were collected, and centrifuged at 1000 rpm for 10 minutes, and the supernatant was collected and stored at −40 degrees Celsius. Cells were resuspended with 1 ml of PBS and counted. 100 ul of centrifuged smear was taken and stained with Diff quick and the number of eosinophils, basophils, lymphocytes and macrophages were recorded.
Bronchoalveolar Lavage Fluid IL-5: Bronchoalveolar lavage fluid was collected to detect IL-5.
Pathological scoring criteria were: • A) 0 points: No lymphocyte infiltration; • B) 1 point: Trace lymphocyte infiltration; • C) 2 points: Mild lymphocyte infiltration; • D) 3 points: Moderate lymphocyte infiltration; • E) 4 points: Severe lymphocyte infiltration; • After scoring, the results were calculated and analyzed.

[4] = tested on: allergic rhinitis model in mice; assay: Allergic rhinitis model in mice (OVA); type: in vivo, BALB/C mice; conditions: for Rhinitis behavioral scoring: 7-day treatment, MDI-1233 10 mg/kg, MDI-1228 3 mg/kg, fluticasone propionate positive control
Description: 42-49 day-old BALB/C mice (Manufacturer: Liaoning Changsheng Biotechnology Co., Ltd., License Number: SCXK(therapeutic)2015-0001), both male and female, were reared under conventional diet, at a temperature of 20 to 26° C., and a humidity of 40% to 70%. Animal grouping and modeling: • 1. Blank control group (no treatment) • 2. Allergic rhinitis group (vehicle treatment: saline containing 0.2% Tween 80) • 3. Allergic rhinitis+compound MDI-1233: 1 mg/kg • 4. Allergic rhinitis+compound MDI-1233: 3 mg/kg • 5. Allergic rhinitis+compound MDI-1233: 10 mg/kg • 6. Allergic rhinitis+compound MDI-1228: 3 mg/kg • 7. Allergic rhinitis+compound MDI-1288: 3 mg/kg • 8. Allergic rhinitis+positive control group (Fluticasone propionate, GlaxoSmithKline, E88D
The preparation of an AR model in mice involved sensitizing and challenging BALB/c mice with ovalbumin (OVA) to simulate an acute symptoms caused by natural exposure to an allergen. The experimental animals were weighed and separated by gender. Sensitization was performed on days 1, 5, 9, and 12. From day 13, a daily challenge was carried out for 7 consecutive days. After the last challenge, behavior of the mice was observed and scored. The sensitization method involved intraperitoneal injection of an OVA (Sigma, A5503-1G) suspension in 50 μg/ml in which the OVA suspension was prepared by dissolving 500 μg of ovalbumin and 50 mg of AL(OH)3 (CAS 21645-51-2) into 10 ml of normal saline, pH 7.4, with 200 μl injected per mouse. […] On day 12, a single nasal challenge with 10% OVA was performed (PBS was used for the control group). Scoring was conducted according to the table below, using a superposition method to calculate the total score. A total score greater than 5 was considered as successful. Subsequent experiments were conducted after the modeling was deemed successful.
From day 13, compound administration and challenge were conducted. The compound administration method involved calculating the nasal drops volume according to the mouse's body weight and group requirements, and dissolving the compounds MDI-1233, MDI-1228, MDI-1288 into normal saline containing 0.2% Tween 80 at specific concentrations. The administration was given 30 minutes before the challenge, twice a day. The positive control treatment involved administering nasal drop once (10 μl per side) 30 minutes before OVA nasal stimulation, twice a day. Thirty minutes after the second drug administration, a 10% OVA challenge was conducted, and the amount of nasal discharge, sneezing, and nose scratching were observed and recorded within 30 minutes after each challenge and then scored. The control group was treated with normal saline nasal drops.
After the rhinitis modeling was completed and the scores were stable, mice of each group were anesthetized and sacrificed after a 20-day scoring. Samples were collected, and peripheral serum was obtained by collecting whole blood, and standing it at room temperature for 1 hour and then centrifuging it to collect the supernatant for ELISA detection; nasal mucosa was taken for HE staining (fixed with 10% formalin); and the supernatant of nasal lavage fluid was taken for ELISA detection.
(1) HE Staining: The tissue was rinsed with running water for several hours, dehydrated through a series of ethanol solutions (70%, 80%, 90%), and then treated with a mixture of pure alcohol and xylene for 15 minutes, followed by xylene I for 15 minutes and xylene I1 for 15 minutes (until transparent). The tissue was then placed in a mixture of xylene and paraffin at a volume ratio of 1:1 for 15 minutes, followed by immersion with paraffin I and paraffin II each for 50-60 minutes. The tissue was embedded in paraffin and sectioned, and the sections were spreaded, dried, dewaxed and hydrated in distilled water. […]

TRKA [5] = target: T1, TRKA; assay: Inhibitory activity on TRKA (ADP-Glo Kinase Assay)
TRKB = TRKB (Homo sapiens (Human), UniProt Q16620); assay: Inhibitory activity on TRKB (ADP-Glo Kinase Assay)
Sequence of TRKB (Q16620 32-822): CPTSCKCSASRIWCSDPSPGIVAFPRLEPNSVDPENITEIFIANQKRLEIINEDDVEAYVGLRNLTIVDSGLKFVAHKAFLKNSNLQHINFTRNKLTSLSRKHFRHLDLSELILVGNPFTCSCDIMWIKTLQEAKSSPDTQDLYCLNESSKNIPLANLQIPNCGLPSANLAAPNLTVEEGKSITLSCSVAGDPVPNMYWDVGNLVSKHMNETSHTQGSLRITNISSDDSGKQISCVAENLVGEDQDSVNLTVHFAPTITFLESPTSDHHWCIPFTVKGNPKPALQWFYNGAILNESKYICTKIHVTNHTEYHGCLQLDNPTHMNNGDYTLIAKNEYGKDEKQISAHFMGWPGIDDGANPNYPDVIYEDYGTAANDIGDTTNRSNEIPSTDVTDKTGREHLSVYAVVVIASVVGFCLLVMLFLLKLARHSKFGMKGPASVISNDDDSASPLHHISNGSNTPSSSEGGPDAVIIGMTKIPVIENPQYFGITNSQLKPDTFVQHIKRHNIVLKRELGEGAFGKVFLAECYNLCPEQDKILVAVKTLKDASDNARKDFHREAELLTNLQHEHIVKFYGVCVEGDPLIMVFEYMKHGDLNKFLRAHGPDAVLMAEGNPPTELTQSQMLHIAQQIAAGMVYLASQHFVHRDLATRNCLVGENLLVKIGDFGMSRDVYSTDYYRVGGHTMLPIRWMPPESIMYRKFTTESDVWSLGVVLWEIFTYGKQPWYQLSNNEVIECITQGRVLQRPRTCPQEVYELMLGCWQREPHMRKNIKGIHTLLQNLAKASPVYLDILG

TRKC = TRKC (Homo sapiens (Human), UniProt Q16288); assay: Inhibitory activity on TRKC (ADP-Glo Kinase Assay)
Sequence of TRKC (Q16288 32-839): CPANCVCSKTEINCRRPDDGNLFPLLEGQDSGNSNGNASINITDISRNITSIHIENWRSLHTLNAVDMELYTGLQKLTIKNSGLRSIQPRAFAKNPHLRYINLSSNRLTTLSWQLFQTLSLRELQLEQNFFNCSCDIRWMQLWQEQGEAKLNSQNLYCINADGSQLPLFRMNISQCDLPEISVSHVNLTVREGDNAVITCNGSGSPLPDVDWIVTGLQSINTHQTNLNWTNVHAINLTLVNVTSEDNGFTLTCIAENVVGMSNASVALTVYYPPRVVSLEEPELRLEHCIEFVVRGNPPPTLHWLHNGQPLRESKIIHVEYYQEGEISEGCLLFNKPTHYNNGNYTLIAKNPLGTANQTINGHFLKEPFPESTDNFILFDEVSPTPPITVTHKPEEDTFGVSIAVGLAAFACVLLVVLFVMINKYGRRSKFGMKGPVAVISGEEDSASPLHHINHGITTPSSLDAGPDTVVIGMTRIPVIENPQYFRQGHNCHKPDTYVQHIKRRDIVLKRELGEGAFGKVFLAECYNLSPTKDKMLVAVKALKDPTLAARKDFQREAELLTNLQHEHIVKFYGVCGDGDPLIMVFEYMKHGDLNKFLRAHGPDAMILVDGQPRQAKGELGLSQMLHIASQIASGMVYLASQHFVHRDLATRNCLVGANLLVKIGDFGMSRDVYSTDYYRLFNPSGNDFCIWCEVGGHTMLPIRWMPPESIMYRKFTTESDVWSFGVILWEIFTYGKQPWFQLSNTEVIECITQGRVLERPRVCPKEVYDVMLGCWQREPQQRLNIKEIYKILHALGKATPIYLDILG

[6] = vs. vehicle (model) group, dexamethasone 1 mg/kg gavage QD
[7] = nasal drops twice a day, MDI-1288 3 mg/kg

Compound: C[C@@H]1CCN(C(=O)CC#N)C[C@@H]1N(C)c1ncnc2[nH]ccc12 [Tofacitinib, reference compound]
Number of Scratch Incidents (±SE) ([1]; Day 1): 17.75 ± 0.86 | Scratch Duration (±SE) ([1]; Day 1): 278.25 ± 50.09 | Skin Erythema, Hemorrhage, Eruption, and Desquamation (Lesion Scoring) (Mean ± SE) ([1]; Day 1): 4.38 ± 0.46 | Skin Erythema, Hemorrhage, Eruption, and Desquamation (Lesion Scoring) (Mean ± SE) ([1]; Day 4): 2.63 ± 0.26 | Skin Erythema, Hemorrhage, Eruption, and Desquamation (Lesion Scoring) (Mean ± SE) ([1]; Day 7): 2.00 ± 0.33 | Number of Scratch Incidents (±SE) ([1]; Day 14): 26.7 ± 1.96 | Scratch Duration (±SE) ([1]; Day 14): 217.5 ± 47.85 | Skin Erythema, Hemorrhage, Eruption, and Desquamation (Lesion Scoring) (Mean ± SE) ([1]; Day 14): 1.50 ± 0.19 | Behavioral analysis (scratch incidents and scratch duration) ([1]; MDI-1228 high-dose (3% gel), tofacitinib 10 mg/kg): did not show significant effects in the behavioral analysis | Lipolysis of differentiated mature adipocytes (phase contrast images) (adipocytes; 5 μM): does not promote lipolysis | Adipocyte lipolysis in vitro (adipocytes; summary statement): no similar effect

Compound: Pegcantratinib
Inhibition of JAK3 (JAK3): capable of inhibiting | Inhibition of TRKA (TRKA [2]): capable of inhibiting

Compound: CCc1cc(O)c(F)cc1-c1ccc2c(-c3nc4c([nH]3)CN(C(=O)C3CC3)C4)n[nH]c2c1 [MDI-1233, cyclopropyl (2-(6-(2-ethyl-5-fluoro-4-hydroxyphenyl)-1H-indazol-3-yl)pyrrolo[3,4-d]imidazol-5(1H,4H,6H)-yl)ketone]
IC50 (RET): 4.21 nM | Therapeutic effect on the asthma animal model (lung tissue pathological scoring) [3]: good therapeutic effect | Bronchoalveolar lavage fluid IL-5 expression level [3, 6]: could reduce IL-5 expression in all three dosage | Inflammatory cell count in bronchoalveolar lavage fluid [3, 6]: could reduce the Inflammatory Cell Count in all three dosage | Lung tissue inflammatory cell infiltration (HE pathology) [3, 6]: could reduce the lung tissue inflammatory cell infiltration in all three dosage | Serum IgE expression level [3, 6]: could reduce IgE expression in all three dosage | Nasal mucosa pathology (HE staining) ([4]; MDI-1233 1 mg/kg and 3 mg/kg nasal drops twice a day): still accompanied by bleeding, inflammatory cell infiltration, cilia shedding | Nasal mucosa pathology (HE staining) ([4]; MDI-1233 10 mg/kg nasal drops twice a day): the nasal mucosal cilia repair effect was significant | Rhinitis behavioral scoring [4, 7]: demonstrated inhibitory effects on the male mouse rhinitis model | IC50 (TRKA [5]; read-out: TRKA IC50, ATP 5 μM): 12.2 nM | IC50 (TRKB; read-out: TRKB IC50, ATP 5 μM): 4.16 nM | IC50 (TRKC; read-out: TRKC IC50, ATP 5 μM): 5.91 nM

IC50 (RET): 8.36 nM | IC50 (TRKA [5]; read-out: TRKA IC50, ATP 5 μM): 10.3 nM | IC50 (TRKB; read-out: TRKB IC50, ATP 5 μM): 34.2 nM | IC50 (TRKC; read-out: TRKC IC50, ATP 5 μM): 3.73 nM
Compound: CCNC(=O)N1Cc2nc(-c3n[nH]c4cc(-c5cc(F)c(O)cc5CC)ccc34)[nH]c2C1 [MDI-247, 2-(6-(2-ethyl-5-fluoro-4-hydroxyphenyl)-1H-indazol-3-yl)-N-ethyl-4,6-dihydropyrrolo[3,4-d]imidazol-5-(1H)-carboxamide]

IC50 (RET): 0.99 nM | IC50 (TRKA [5]): 0.83 nM | IC50 (TRKB): 3.37 nM | IC50 (TRKC): 0.57 nM
Compound: CCc1cc(O)c(F)cc1-c1ccc2c(-c3nc4c([nH]3)CN(C(=O)N3CCC(O)CC3)C4)n[nH]c2c1 [MDI-245, (2-(6-(2-ethyl-5-fluoro-4-hydroxyphenyl)-1H-indazol-3-yl)-4,6-dihydropyrrolo[3,4-d]imidazol-5(1H)-yl)(4-hydroxylpiperidin-1-yl)ketone]

IC50 (RET): 0.1 nM | IC50 (TRKA [5]): 0.57 nM | IC50 (TRKB): 1.39 nM | IC50 (TRKC): 0.27 nM
Compound: CCc1cc(O)c(F)cc1-c1ccc2c(-c3nc4c([nH]3)CN(C(=O)N3CCN(C)CC3)C4)n[nH]c2c1 [MDI-235, (2-(6-(2-ethyl-5-fluoro-4-hydroxyphenyl)-1H-indazol-3-yl)-4,6-dihydropyrrolo[3,4-d]imidazol-5-(1H)-yl)(4-methylpiperazin-1-yl)ketone]

Compound: CCC(=O)O[C@]1(C(=O)SCF)[C@H](C)C[C@H]2[C@@H]3C[C@H](F)C4=CC(=O)C=C[C@]4(C)[C@@]3(F)[C@@H](O)C[C@@]21C [fluticasone propionate, reference compound]
Nasal mucosa pathology (HE staining) ([4]; MDI-1288 3 mg/kg, fluticasone propionate 10 μl per side, nasal drops twice a day): inhibited the progression of rhinitis and promoted repair of cilia on the nasal mucosa | Rhinitis behavioral scoring [4, 7]: significant effects on inhibiting the rhinitis behavior
